Positions of bridges follow the written chain, without caps; N, C: chain ends. Non-standard residues stand in square brackets, D forms with d. Residues, ends and D or L forms follow the SMILES beside them. Phe(4-CONH2) = NC(=O)c1ccc(C[C@H](N)C(=O)O)cc1; NHexGly = CCCCCCNCC(=O)O; Sar = CNCC(=O)O

For data set [1], the target named is Indolethylamine N-methyltransferase (Homo sapiens, UniProt O95050). As to the kind of experiment: Inhibition of N-terminal 6His-tagged full length human recombinant INMT (1 to 263 residues) expressed in Escherichia coli BL21 (DE3) cells using S-(5'-Adenosyl)-L-methionine chloride dihydrochloride and 9H-pyrido[3,4-b]indole as substrate incubated for 2.5 hrs by MTase-Glo assay.

In another data set the test system is HEK293. The data set can be described thus: Cytotoxicity against HEK293 cells assessed as reduction in ATP incubated for 10 mins by CellTiter-Glo luminescence assay. Format: toxicity, cell-based. Particulars: human, hek293, 10 min.
Data set [2] addresses T1, Nicotinamide N-methyltransferase (Homo sapiens, UniProt P40261).
T1 sequence (P40261 whole entry): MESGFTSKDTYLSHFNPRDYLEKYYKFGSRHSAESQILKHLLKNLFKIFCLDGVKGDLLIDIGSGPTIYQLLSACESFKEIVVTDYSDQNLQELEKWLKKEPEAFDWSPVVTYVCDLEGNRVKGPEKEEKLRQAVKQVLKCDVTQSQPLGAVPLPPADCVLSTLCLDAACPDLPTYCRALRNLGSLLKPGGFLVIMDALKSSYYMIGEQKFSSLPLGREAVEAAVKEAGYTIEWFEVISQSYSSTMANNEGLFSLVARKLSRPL
As to the kind of experiment: Inhibition of N-terminal 6His-tagged full length human recombinant NNMT (1 to 264 residues) expressed in Escherichia coli BL21 (DE3) cells using S-adenosyl-L-methionine and NAM as substrate incubated for 2 hrs by RapidFire Mass Spectrometry.

Data set [3] has as its target T1, Nicotinamide N-methyltransferase. The data set can be described thus: Inhibition of N-terminal 6His-tagged full length human recombinant NNMT (1 to 264 residues) expressed in Escherichia coli BL21 (DE3) cells using S-adenosyl-L-methionine and NAM as substrate incubated for 22 to 24 hrs by RapidFire Mass Spectrometry.
For data set [4] the target is unchanged. The data set can be described thus: Inhibition of NNMT in HEK293 cells measured after 20 to 24 hrs by RapidFire Mass Spectrometry. Format: cell-based.

Indolethylamine N-methyltransferase, sequence (O95050 whole entry, the tested form may be a part): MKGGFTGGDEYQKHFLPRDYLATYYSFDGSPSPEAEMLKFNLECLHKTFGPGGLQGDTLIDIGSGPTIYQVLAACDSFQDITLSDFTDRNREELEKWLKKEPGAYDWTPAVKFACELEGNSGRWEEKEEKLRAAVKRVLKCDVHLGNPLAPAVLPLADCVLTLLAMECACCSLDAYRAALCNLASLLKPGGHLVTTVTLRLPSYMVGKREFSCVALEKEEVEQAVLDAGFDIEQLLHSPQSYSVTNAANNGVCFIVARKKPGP

With `Cc1ccc2c(c1)cc([C@H]1C[C@H](n3ccnc3CN)CN1C(=O)c1cnc3[nH]ccc3c1)n2Cc1ccc(Cl)cc1`, the IC50 in data set [1] is more than 100 µM.

`NCc1nccn1[C@H]1C[C@H](c2nc3ccccc3n2Cc2ccccc2)N(C(=O)c2cnc3[nH]ccc3c2)C1`: the IC50 in data set [1] was more than 100 µM.

As for `Cc1ccc2c(c1)cc([C@H]1C[C@H](n3nc(C)cc3CN)CN1C(=O)c1cnc3[nH]c(C)cc3c1)n2Cc1ccc(Cl)cc1`, the CC20 in the data set on HEK293 is more than 10 µM. In data set [1], the IC50 was more than 100 µM.

As for `CCCCCCN(CC(=O)N[C@@H](Cc1c[nH]c2ccccc12)C(N)=O)C(=O)CNC(=O)[C@H](CCCNC(=N)N)NC(C)=O` (Ac-RG[NHexGly]W-NH2), the IC50 in data set [2] was more than 30 µM.

In the case of `CCCCCCN1CC(=O)N[C@@H](Cc2c[nH]c3ccccc23)C(=O)N2CCC[C@H]2C(=O)N[C@H](C(N)=O)CSCC(=O)N[C@@H](Cc2ccccc2)C(=O)N[C@@H](Cc2ccc(C(N)=O)cc2)C(=O)N[C@@H](C)C(=O)NCC1=O` ({CH2CO}-F[Phe(4-CONH2)]AG[NHexGly]WPC-NH2; thioether N-8), the IC50 in data set [3] was more than 100 µM.

As for `C[C@@H]1NC(=O)CNC(=O)[C@H](CCCNC(=N)N)NC(=O)[C@H](Cc2ccc(C(N)=O)cc2)NC(=O)[C@H](Cc2ccccc2)NC(=O)CSC[C@@H](C(N)=O)NC(=O)[C@@H]2CCCN2C(=O)[C@H](Cc2c[nH]c3ccccc23)NC1=O` ({CH2CO}-F[Phe(4-CONH2)]RGAWPC-NH2; thioether N-8), the IC50 in data set [3] is more than 100 µM.

Take `CCCCCCN1CC(=O)N[C@@H](C)C(=O)N2CCC[C@H]2C(=O)N[C@H](C(N)=O)CSCC(=O)N[C@@H](Cc2ccccc2)C(=O)N[C@@H](Cc2ccc(C(N)=O)cc2)C(=O)N[C@@H](CCCNC(=N)N)C(=O)NCC1=O` ({CH2CO}-F[Phe(4-CONH2)]RG[NHexGly]APC-NH2; thioether N-8): in data set [3], the IC50 was more than 100 µM.

With `CCCCCCN1CC(=O)N[C@@H](Cc2c[nH]c3ccccc23)C(=O)N2CCC[C@H]2C(=O)N[C@H](C(=O)NCC(N)=O)CSCC(=O)N[C@@H](Cc2ccccc2)C(=O)N[C@@H](Cc2ccc(C(N)=O)cc2)C(=O)N[C@@H](CCCNC(=N)N)C(=O)NCC1=O` ({CH2CO}-F[Phe(4-CONH2)]RG[NHexGly]WPCG-NH2; thioether N-8), in data set [1], the half-maximal inhibitory concentration (IC50) was more than 100 µM.

For the molecule `CN1CC(=O)N[C@@H](Cc2c[nH]c3ccccc23)C(=O)N2CCC[C@H]2C(=O)N[C@H](C(N)=O)CSCC(=O)N[C@@H](Cc2ccccc2)C(=O)N[C@@H](Cc2ccc(C(N)=O)cc2)C(=O)N[C@@H](CCCNC(=N)N)C(=O)NCC1=O` ({CH2CO}-F[Phe(4-CONH2)]RG[Sar]WPC-NH2; thioether N-8), the IC50 in data set [3] is more than 30 µM.

With `Nc1ncnc2c1ncn2[C@@H]1O[C@H](C[C@@H](N)CC[C@H](N)C(=O)O)[C@@H](O)[C@H]1O` [SINEFUNGIN], the results for the IC50 in data set [2], in data set [4] and in data set [1] were 5.2 µM, more than 100 µM and 4 µM, respectively.

What is called IC50 is the concentration needed to halve the response being measured.

The record behind these values is ChEMBL document CHEMBL5137077, “Peptide-to-Small Molecule: A Pharmacophore-Guided Small Molecule Lead Generation Strategy from High-Affinity Macrocyclic Peptides” (J Med Chem, 2022).
